In publication PMC9743598, “OR2AT4 and OR1A2 counterregulate molecular pathophysiological processes of steroid-resistant inflammatory lung diseases in human alveolar macrophages” (Molecular Medicine, 2022) one finds EC50 data, which are given here for one compound.

The EC50 is the midpoint of the concentration-response curve.

The assay concerns the target T1, OR2AT4 (Homo sapiens, UniProt A6NND4).
T1 construct: endogenous full-length receptor in primary human alveolar macrophages from bronchoalveolar lavage; estimated 34 kDa, blot signal about 40 kDa
T1 sequence (A6NND4 1-320): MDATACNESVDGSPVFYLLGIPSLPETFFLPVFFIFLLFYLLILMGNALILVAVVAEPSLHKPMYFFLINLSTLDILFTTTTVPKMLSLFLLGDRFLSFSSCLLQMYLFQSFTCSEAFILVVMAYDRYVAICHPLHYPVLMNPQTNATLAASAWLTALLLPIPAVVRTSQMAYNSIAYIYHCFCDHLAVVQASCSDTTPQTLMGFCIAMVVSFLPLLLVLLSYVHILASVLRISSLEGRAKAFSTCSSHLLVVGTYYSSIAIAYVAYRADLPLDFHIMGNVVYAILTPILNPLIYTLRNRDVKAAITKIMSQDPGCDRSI
Kind of assay: Fura-2 single-cell calcium imaging, primary human alveolar macrophages. The format is cell-based. The settings on record: agonist; endogenous receptor in native cells; Ringer solution.

Molecules are shown by their SMILES.

`CC1=CCC(CCC(C)C(C)O)C1(C)C` (stereo not shown) [Sandalore]: the 50% effective concentration (EC50) was found to be 190 µM.
